Consider eleven molecules from PMC8537501 (2021).

Test [1] concerns CPG-tel26 (DNA, G4) TTAGGGTTAGGGTTAGGGTTAGGGTT
As to the kind of experiment: G4-CPG affinity chromatography. Conditions: 50 mM KCl; 10% DMSO, 10% ethanol; 600 μM ligand.

The subject of test [2] is CPG-c-myc (DNA, G4) TGGGGAGGGTGGGGAGGGTGGGGAAGGTGGGGA
Description: G4-CPG affinity chromatography. Conditions: 50 mM KCl; 10% DMSO, 10% ethanol; 600 μM ligand.

Test [3] has as its system CPG-ds27 (DNA, hairpin) CGCGAATTCGCGTTTCGCGAATTCGCG
Description: G4-CPG affinity chromatography. Conditions: 50 mM KCl; 10% DMSO, 10% ethanol; 600 μM ligand.

The test system of test [4] is c-myc (DNA, G4) TGGGGAGGGTGGGGAGGGTGGGGAAGGTGGGGA
Description: fluorescence titration. Conditions: 5 mM KCl.

Test [5] deals with ds27 (DNA, hairpin) CGCGAATTCGCGTTTCGCGAATTCGCG
As to the kind of experiment: fluorescence titration. Conditions: 5 mM KCl.

Test [6] relates to tel26 (DNA, G4) TTAGGGTTAGGGTTAGGGTTAGGGTT
Description: fluorescence titration. Conditions: 5 mM KCl.

The test system of test [7] is ds27 (DNA, hairpin) CGCGAATTCGCGTTTCGCGAATTCGCG
As to the kind of experiment: CD melting, 251 nm. The following applies: 5 mM KCl; 5 mM phosphate, 5% DMSO, pH 7; 2 μM DNA, 20 μM ligand.

Test [8] has as its system tel26 (DNA, G4) TTAGGGTTAGGGTTAGGGTTAGGGTT
Description: CD melting, 290 nm. Conditions: 5 mM KCl; 5 mM phosphate, 5% DMSO, pH 7; 2 μM DNA, 20 μM ligand.

Test [9] deals with c-myc (DNA, G4) TGGGGAGGGTGGGGAGGGTGGGGAAGGTGGGGA
Description: CD melting, 262 nm. Conditions: 0.5 mM KCl; 0.5 mM phosphate, 5% DMSO, pH 7; 2 μM DNA, 20 μM ligand.

Where [10] appears, read: 5 mM phosphate, 5% DMSO, pH 7, 20 °C, 2 μM ligand, independent equivalent-sites model.

On to `CC(C)(O)CC[C@@H](O)[C@](C)(O)[C@H]1CC[C@@]2(O)C3=CC(=O)[C@@H]4C[C@@H](O)[C@@H](O)C[C@]4(C)[C@H]3CC[C@]12C`, for which the binding result in test [1] was “weak”.
For the molecule `CC(C)=CCC1=C(O)c2c(cc3cc(C)cc(O)c3c2O)C(CC=C(C)C)(CC=C(C)C)C1=O`, the binding entry in test [1] and in test [2] was “weak” throughout.
Consider `CC(C)=CCc1c(C)cc2cc3c(c(O)c2c1O)C(=O)C=C(O)C3(CC=C(C)C)CC=C(CO)CO` (stereo not shown), for which the binding entry in [1] and in test [2] was “weak” in each case.
As for `CC1=C2C(=O)[C@H]3[C@@H](CC=C4C[C@@H](O)CC[C@@]43C)[C@@H]2CC[C@]12O[C@@H]1C[C@H](C)CN[C@H]1[C@H]2C`, the binding entry in test [1], in [3] and in test [2] was “yes” in each case.
For the molecule `CC[C@H]1CN2CCc3cc(OC)c(OC)cc3[C@@H]2C[C@@H]1C[C@H]1NCCc2cc(OC)c(OC)cc21`, the binding result in [1], in [3] and in test [2] was “yes” each time.
What is called ΔTm is the change in melting temperature against a reference sample. Consider `CC[C@H]1C[C@@H]2C[C@H]3c4[nH]c5ccc(OC)cc5c4CCN(C2)[C@@H]13`, for which the Kb is on record as 3.9 (±0.7) × 10^5 M^-1 in [4], 3.7 (±0.7) × 10^5 M^-1 in [5] and 4.1 (±0.8) × 10^5 M^-1 in test [6]. The figures for the ΔTm in [7] and in [8] were 0 °C and “+2 °C”, respectively.
As to `CN1CC[C@]23C(=O)C[C@H]4C(=CCO[C@H]5CC(=O)N(c6c(O)cccc62)[C@H]3[C@H]54)C1`, the figures for the ΔTm entry in test [9], in [7] and in [8] were “+5 °C”, −3 °C and 0 °C, respectively. Moreover, the binding entry in test [1] and in test [2] was “yes” each time.
As for `CN1Cc2c(ccc3c2OCO3)[C@@H]2[C@H]1c1cc3c(cc1C[C@@H]2O)OCO3`, the ΔTm entry is “+13 °C” in [9], −1 °C in test [7] and “+4 °C” in test [8]. For the same molecule, the binding entry was “yes” in test [4] (5 mM phosphate, 5% DMSO, pH 7, 20 °C, 2 μM ligand, enhancement then quenching, not fitted); “no” in test [5] (5 mM phosphate, 5% DMSO, pH 7, 20 °C, 2 μM ligand, DNA up to 10 μM); “yes” in test [6] (5 mM phosphate, 5% DMSO, pH 7, 20 °C, 2 μM ligand, quenching, not fitted).
Turning to `COC(=O)[C@@H]1[C@H]2C[C@H]3c4[nH]c5ccccc5c4CCN3C[C@@H]2CC[C@@H]1O`, the binding result in test [2] was “weak”.
On to `COc1cc2cc3c(c(O)c2c2c1C=CC(C)(C)O2)C(=O)CC(C)(O)C3` (stereo not shown), for which the binding result in test [1] and in test [2] was “weak” throughout.
Consider `COc1ccc2c(c1O)-c1c3c(cc4c1[C@H](C2)N(C)CC4)OCO3`, for which, in test [9], the ΔTm result was “+9 °C”. The Kb is 1.1 (±0.4) × 10^6 M^-1 in test [4] (setting [10]), 1.2 (±0.6) × 10^6 M^-1 in test [5] (setting [10]) and 1.0 (±0.4) × 10^6 M^-1 in test [6] (setting [10]).
